Experimental findings from paper PMC8812569, “A widely distributed phosphate-insensitive phosphatase presents a route for rapid organophosphorus remineralization in the biosphere” (Proceedings of the National Academy of Sciences of the …, 2022) are described below.

Holding throughout (test): pNP release at […] nm in whole cells of complemented P. putida phoX mutant
The target of one test is T1, PafA^Cp2 (Chitinophaga pinensis, UniProt A0A979G1Z1).
T1 construct: gene Cpin_1665; synthesized gene expressed in P. putida BIRD-1 phoX mutant; whole-cell assay
T1 sequence (A0A979G1Z1 29-568): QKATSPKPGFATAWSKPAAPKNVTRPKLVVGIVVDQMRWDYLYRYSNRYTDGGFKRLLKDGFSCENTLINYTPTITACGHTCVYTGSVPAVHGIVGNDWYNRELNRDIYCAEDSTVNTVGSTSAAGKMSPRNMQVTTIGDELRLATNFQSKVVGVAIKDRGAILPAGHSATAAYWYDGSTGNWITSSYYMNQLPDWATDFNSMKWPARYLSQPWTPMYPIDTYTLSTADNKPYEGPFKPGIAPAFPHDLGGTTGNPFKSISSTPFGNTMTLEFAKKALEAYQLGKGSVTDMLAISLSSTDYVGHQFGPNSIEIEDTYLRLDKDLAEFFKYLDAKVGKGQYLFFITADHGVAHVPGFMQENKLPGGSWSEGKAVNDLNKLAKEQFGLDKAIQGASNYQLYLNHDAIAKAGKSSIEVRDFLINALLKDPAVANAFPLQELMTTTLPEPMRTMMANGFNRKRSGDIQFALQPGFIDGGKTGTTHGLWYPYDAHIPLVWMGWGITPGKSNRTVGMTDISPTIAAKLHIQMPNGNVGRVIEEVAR
Format: cell-based. The settings on record: 10 mM pNPP.

The next test has as its target T2, PhoA2^Fj (Flavobacterium johnsoniae, UniProt A5FF14).
T2 construct: gene Fjoh_3187; full gene expressed from pBBR1MCS-km in P. putida BIRD-1 phoX mutant; whole-cell assay
T2 sequence (A5FF14 27-468): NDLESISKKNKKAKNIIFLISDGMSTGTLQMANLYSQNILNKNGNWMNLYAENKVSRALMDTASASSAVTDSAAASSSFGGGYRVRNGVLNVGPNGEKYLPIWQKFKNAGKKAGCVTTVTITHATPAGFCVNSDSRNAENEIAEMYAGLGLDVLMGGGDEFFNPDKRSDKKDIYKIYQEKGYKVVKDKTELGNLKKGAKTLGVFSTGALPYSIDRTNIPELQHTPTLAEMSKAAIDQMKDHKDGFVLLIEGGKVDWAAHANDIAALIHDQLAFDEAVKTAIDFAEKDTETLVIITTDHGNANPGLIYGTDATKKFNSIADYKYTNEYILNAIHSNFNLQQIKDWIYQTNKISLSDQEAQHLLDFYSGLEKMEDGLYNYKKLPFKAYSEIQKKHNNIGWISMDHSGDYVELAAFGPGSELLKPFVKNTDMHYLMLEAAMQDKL
Format: cell-based. To be noted: 10 mM pNPP; growth medium or Tris-HCl pH 9.4; 28 °C.

For the next test, the target named is T3, PafA^Fj (Flavobacterium johnsoniae, UniProt A5FP14).
T3 construct: gene Fjoh_0023; full gene expressed from pBBR1MCS-km in P. putida BIRD-1 phoX mutant; whole-cell assay
T3 sequence (A5FP14 19-539): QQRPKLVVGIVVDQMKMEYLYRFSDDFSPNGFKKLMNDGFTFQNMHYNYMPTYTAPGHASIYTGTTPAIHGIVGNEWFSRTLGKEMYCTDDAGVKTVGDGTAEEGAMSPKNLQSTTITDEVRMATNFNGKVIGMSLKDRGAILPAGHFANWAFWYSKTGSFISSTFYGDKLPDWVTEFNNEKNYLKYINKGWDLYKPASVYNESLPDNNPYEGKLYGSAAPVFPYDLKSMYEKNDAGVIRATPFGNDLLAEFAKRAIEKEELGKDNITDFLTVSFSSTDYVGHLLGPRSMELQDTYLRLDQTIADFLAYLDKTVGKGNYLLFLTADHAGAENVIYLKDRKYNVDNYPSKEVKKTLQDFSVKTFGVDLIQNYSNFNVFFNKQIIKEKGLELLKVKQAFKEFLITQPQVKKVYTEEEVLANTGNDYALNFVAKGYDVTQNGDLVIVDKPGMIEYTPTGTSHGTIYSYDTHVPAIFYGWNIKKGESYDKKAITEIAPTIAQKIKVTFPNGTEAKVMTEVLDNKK
Format: cell-based. To be noted: 10 mM pNPP; growth medium or Tris-HCl pH 9.4; 28 °C.

The next test deals with T4, PafA^Cp1 (Chitinophaga pinensis, UniProt A0A979GMC5).
T4 construct: gene Cpin_0724; synthesized gene expressed in P. putida BIRD-1 phoX mutant; whole-cell assay
T4 sequence (A0A979GMC5 26-545): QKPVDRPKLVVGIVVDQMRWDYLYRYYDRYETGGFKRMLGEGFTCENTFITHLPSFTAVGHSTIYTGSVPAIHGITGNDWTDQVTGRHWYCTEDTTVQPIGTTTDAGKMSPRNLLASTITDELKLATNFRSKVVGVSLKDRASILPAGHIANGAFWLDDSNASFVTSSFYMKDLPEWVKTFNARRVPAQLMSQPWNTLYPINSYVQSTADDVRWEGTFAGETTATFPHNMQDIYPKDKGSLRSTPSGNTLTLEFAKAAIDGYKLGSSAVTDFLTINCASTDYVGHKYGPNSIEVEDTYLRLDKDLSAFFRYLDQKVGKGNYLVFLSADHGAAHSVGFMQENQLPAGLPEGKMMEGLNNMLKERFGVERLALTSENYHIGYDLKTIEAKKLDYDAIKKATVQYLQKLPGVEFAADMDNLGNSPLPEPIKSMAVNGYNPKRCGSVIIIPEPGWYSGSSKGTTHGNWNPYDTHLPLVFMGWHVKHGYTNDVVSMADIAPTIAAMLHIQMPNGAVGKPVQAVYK
Format: cell-based. To be noted: 10 mM pNPP.

In the next test the target is T5, PhoA^Ec (Escherichia coli, UniProt P00634).
T5 construct: full gene expressed in P. putida BIRD-1 phoX mutant; whole-cell assay
T5 sequence (P00634 22-471): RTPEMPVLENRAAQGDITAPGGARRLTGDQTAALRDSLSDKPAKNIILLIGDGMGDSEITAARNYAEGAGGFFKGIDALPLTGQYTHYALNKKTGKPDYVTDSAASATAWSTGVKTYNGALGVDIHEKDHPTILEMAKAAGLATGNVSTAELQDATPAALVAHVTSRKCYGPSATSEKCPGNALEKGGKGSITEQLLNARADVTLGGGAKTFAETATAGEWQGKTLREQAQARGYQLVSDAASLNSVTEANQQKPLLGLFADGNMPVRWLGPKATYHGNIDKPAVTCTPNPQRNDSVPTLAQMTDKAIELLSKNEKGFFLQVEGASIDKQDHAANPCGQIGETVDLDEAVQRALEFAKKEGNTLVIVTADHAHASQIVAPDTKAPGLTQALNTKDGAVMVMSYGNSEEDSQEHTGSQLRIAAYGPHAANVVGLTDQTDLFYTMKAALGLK
It is filed as cell-based, Pseudomonas putida. To be noted: 10 mM pNPP; growth medium or Tris-HCl pH 9.4; 28 °C.

The next test addresses T6, PhoA1^Fj (Flavobacterium johnsoniae, UniProt A5FEV6).
T6 construct: gene Fjoh_3249; full gene expressed from pBBR1MCS-km in P. putida BIRD-1 phoX mutant; whole-cell assay
T6 sequence (A5FEV6 19-607): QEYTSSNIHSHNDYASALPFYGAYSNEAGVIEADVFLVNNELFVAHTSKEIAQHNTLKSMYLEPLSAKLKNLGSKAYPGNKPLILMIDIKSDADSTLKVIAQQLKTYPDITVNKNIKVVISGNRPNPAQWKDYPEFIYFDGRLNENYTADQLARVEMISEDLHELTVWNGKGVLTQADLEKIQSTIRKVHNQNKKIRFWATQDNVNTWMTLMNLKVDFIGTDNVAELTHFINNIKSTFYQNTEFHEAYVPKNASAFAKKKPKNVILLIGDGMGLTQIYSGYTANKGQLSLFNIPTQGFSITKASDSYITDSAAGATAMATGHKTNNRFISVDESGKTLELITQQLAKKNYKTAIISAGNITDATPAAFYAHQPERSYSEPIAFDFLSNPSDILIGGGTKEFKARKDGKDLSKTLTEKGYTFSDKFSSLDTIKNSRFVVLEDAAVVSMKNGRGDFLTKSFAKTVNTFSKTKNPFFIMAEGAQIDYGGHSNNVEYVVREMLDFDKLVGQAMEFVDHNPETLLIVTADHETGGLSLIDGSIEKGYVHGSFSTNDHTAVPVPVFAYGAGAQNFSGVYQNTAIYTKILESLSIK
Format: cell-based, Pseudomonas putida. The settings on record: 10 mM pNPP; growth medium or Tris-HCl pH 9.4; 28 °C.

Take `O=[N+]([O-])c1ccc(OP(=O)(O)O)cc1` [para-nitrophenyl phosphate]: the PME activity result is listed as “demonstrating both are functional Pi-insensitive PMEs” at PafA^Cp2; “cells producing PhoA1^Fj (+pBXphoA1^Fj), PhoA2^Fj (+pBXphoA2^Fj), or PafA^Fj (+pBXpafA^Fj) also restored PME activity” at PhoA2^Fj; “or PafA^Fj (+pBXpafA^Fj) also restored PME activity, confirming their function as PMEs” at PafA^Fj; “demonstrating both are functional Pi-insensitive PMEs” on PafA^Cp1; “Plasmid copies of either phoX^BIRD (+pBXphoX^BIRD) or the E. coli phoA (+pBXphoA^Ec) restored PME activity” at PhoA^Ec; “cells producing PhoA1^Fj (+pBXphoA1^Fj), PhoA2^Fj (+pBXphoA2^Fj), or PafA^Fj (+pBXpafA^Fj) also restored PME activity” at PhoA1^Fj.
